The subject of test [1] is Mus musculus. The test can be described thus: Anticonvulsant activity measured in Maximal electroshock assay (MES), intraperitoneal administration. It is filed as functional. (In the maximal electroshock model the usual endpoint is tonic extension of the hind limbs.)
Test [2] has as its system Mus musculus. The test can be described thus: Anticonvulsant activity of compound was tested in mice after intraperitoneal administration in Maximal electroshock assay (MES); Inactive at 40 mg/kg dose. Type of test: functional, organism-based. The arrangement: dose 40 mg/kg.
Test [3] deals with Mus musculus. The test can be described thus: Anticonvulsant activity of compound was tested in mice after intraperitoneal administration in Maximal electroshock assay (MES); Inactive at 30 mg/kg dose. Type of test: functional, organism-based. Also on record: dose 30 mg/kg.
Test [4] relates to Mus musculus. Description: Anticonvulsant activity of compound was tested in mice after intraperitoneal administration in Maximal electroshock assay (MES); Inactive at 13 mg/kg dose. Type of test: functional, organism-based. Also on record: dose 13 mg/kg.
Test [5] concerns Mus musculus. Description: Anticonvulsant activity of compound was tested in mice after intraperitoneal administration in Maximal electroshock assay (MES); Inactive at 70 mg/kg dose. It is filed as functional, organism-based. The arrangement: dose 70 mg/kg.
The test system of test [6] is Mus musculus. Description: Anticonvulsant activity of compound was tested in mice after intraperitoneal administration in Maximal electroshock assay (MES); Inactive at 60 mg/kg dose. It is filed as functional, organism-based. Also on record: dose 60 mg/kg.
Setting [7] is: Mus musculus, ip, read-out: ED50.

Each structure is given as a SMILES string. Several values for one entry are separate records, joined by “and”; a condition that tells them apart may be missing. Identical values can stand only once. Activity calls are given as the source filed them. The calls are words filed in the database; no cut-off is given here.

By ED50 is commonly meant the midpoint of the dose-response relation.

For `CCC(C)(C)N[C@@H](C)[C@H](O)c1cccc(Cl)c1`, in test [1] (setting [7]), the ED50 turned out to be 23 mg/kg.
In turn, `CC(NC(C)(C)C)[C@H](O)c1ccccc1` (single isomer, unassigned) registered an ED50 in test [1] of 25 mg/kg.
With `C[C@H](NC(C)(C)C)[C@H](O)c1cccc([N+](=O)[O-])c1`, the ED50 result in test [2] was “inactive”.
Turning to `CC[C@@H](NC(C)(C)C)[C@H](O)c1cccc(C(F)(F)F)c1`, the ED50 in test [1] (setting [7]) was 31 mg/kg.
Turning to `C[C@H](NC(C)(C)CO)[C@H](O)c1cccc(Cl)c1`, in test [3], the ED50 entry is “inactive”.
With `Cc1ccc([C@@H](O)[C@H](C)NC(C)(C)C)cc1`, the ED50 result in test [2] is “inactive”.
In test [1], `CC(NC(C)(C)C)C(O)c1cccc(Cl)c1` (racemic; form 2) [ERYTHRO-HYDROBUPROPION] had an ED50 of 26 mg/kg.
Turning to `C[C@@H](NC(C)(C)C)[C@H](O)c1cccc(C(F)(F)F)c1`, in test [1], the ED50 was 17 mg/kg and 22 mg/kg.
Take `CCCCN[C@H](C)[C@H](O)c1cccc(C(F)(F)F)c1`: the ED50 result in test [4] was “inactive”.
Turning to `C[C@H](NC(C)(C)C)[C@H](O)c1ccc(Cl)cc1`, the ED50 in test [1] (setting [7]) came out at 25 mg/kg.
In test [1], `C[C@@H](NC(C)(C)C)[C@H](O)c1cccc(Cl)c1` [ERYTHRO-HYDROBUPROPION] showed an ED50 of 11 mg/kg.
Molecule `C[C@H](NC(C)(C)C)[C@H](O)c1cccc(Cl)c1` [ERYTHRO-HYDROBUPROPION] gave an ED50 in test [1] of 28 mg/kg.
Regarding `CC[C@H](NC(C)(C)C)[C@H](O)c1cccc(Cl)c1`, in test [1] (setting [7]), the ED50 worked out at 26 mg/kg.
For the molecule `C[C@H](NC(C)(C)C)[C@H](O)c1ccc(Cl)c(Cl)c1`, in test [1] (setting [7]), the ED50 worked out at 31 mg/kg.
For `C[C@@H](NC(C)(C)C)[C@H](O)c1cccc([N+](=O)[O-])c1`, the ED50 entry in test [2] is “inactive”.
For `CCC(C)(C)N[C@H](C)[C@H](O)c1cccc(C(F)(F)F)c1`, the ED50 in test [1] (setting [7]) was 18 mg/kg.
As to `CC[C@H](NC(C)(C)C)[C@H](O)c1cccc(C(F)(F)F)c1`, in test [1] (setting [7]), the ED50 stood at 40 mg/kg.
On the same count and under the same terms, next, `CCC(C)N[C@H](C)[C@H](O)c1cccc(C(F)(F)F)c1` (some centres undefined): 31 mg/kg; `C[C@@H](NC(C)(C)C)[C@H](O)c1cccc(Br)c1`: 11 mg/kg; `CCC[C@H](NC(C)(C)C)[C@H](O)c1cccc(Cl)c1`: 31 mg/kg.
Same read-out and setting: under `CC[C@@H](NC(C)(C)C)[C@H](O)c1cccc(Cl)c1` stands 15 mg/kg.
With `O=C1NC(=O)C(c2ccccc2)(c2ccccc2)N1` [PHENYTOIN], the ED50 in test [1] (setting [7]) amounted to 8.5 mg/kg.
For `CC(C)N[C@@H](C)[C@H](O)c1cccc(Cl)c1`, in test [1] (setting [7]), the ED50 was 20 mg/kg.
For the molecule `C[C@@H](NC(C)(C)C)[C@H](O)c1ccc(Cl)cc1`, in test [1] (setting [7]), the ED50 is 29 mg/kg.
In the case of `CC(NC(C)(C)C)C(O)c1cccc(C(F)(F)F)c1` (racemic; form 2), the ED50 in test [1] (setting [7]) was 25 mg/kg.
The same measure, in the same setting: next, `CC(C)N[C@H](C)[C@H](O)c1cccc(C(F)(F)F)c1`: 40 mg/kg; `C[C@@H](NC(C)(C)C)[C@H](O)c1ccccc1`: 14 mg/kg.
As to `CCC(C)(C)N[C@@H](C)[C@H](O)c1cccc(C(F)(F)F)c1`, in test [1] (setting [7]), the ED50 worked out at 28 mg/kg.
Turning to `CC(C)(C)NCC(O)c1cccc(Cl)c1` (centres undefined), the ED50 in test [1] (setting [7]) was 28 mg/kg.
On to `C[C@@H](NC(C)(C)C)[C@H](O)c1ccc(Cl)c(Cl)c1`, for which the ED50 in test [1] (setting [7]) amounted to 13 mg/kg.
As to `CC(NC(C)(C)C)C(O)c1cccc(C(F)(F)F)c1` (racemic; form 1), the ED50 in test [1] was found to be 16 mg/kg.
`Cc1ccc([C@@H](O)[C@@H](C)NC(C)(C)C)cc1`: in test [1] (setting [7]), the ED50 amounted to 33 mg/kg.
As for `COc1ccc([C@@H](O)[C@H](C)NC(C)(C)C)cc1`, the ED50 result in test [5] was “inactive”.
With `CCC(C)(C)N[C@H](C)[C@H](O)c1cccc(Cl)c1`, the ED50 in test [1] (setting [7]) stood at 11 mg/kg.
`CC(NC(C)(C)C)C(O)c1cccc(Cl)c1` (racemic; form 1) [ERYTHRO-HYDROBUPROPION] came in with an ED50 in test [1] of 14 mg/kg.
`C[C@H](NC(C)(C)C)[C@H](O)c1cccc(Br)c1`: the ED50 in test [1] (setting [7]) was determined as 16 mg/kg.
As to `CCC[C@H](NC(C)(C)C)[C@H](O)c1cccc(C(F)(F)F)c1`, in test [1] (setting [7]), the ED50 is 31 mg/kg.
As to `C[C@H](N)[C@H](O)c1cccc(Cl)c1`, the ED50 result in test [6] was “inactive”.
Consider `C[C@@H](NC1CCCCC1)[C@H](O)c1cccc(Cl)c1`, for which the ED50 in test [1] (setting [7]) is 13 mg/kg.

The record behind these values is ChEMBL document CHEMBL1151045, “Synthesis and evaluation of the anticonvulsant activity of a series of 2-amino-1-phenyl-1-propanols derived from the metabolites of the antidepressant bupropion” (1997).
